Experimental data: patent US20210299079A1, “MONOMETHYL FUMARATE-CARRIER CONJUGATES AND METHODS OF THEIR USE” (Flagship Pioneering Innovations V, Inc., priority 2018, published 2021)
Where a name gives a salt, the structure may show the parent alone.

Key:
[1] = Stability of conjugates in Simulated Intestinal Fluid (SIF); assay type: in vitro ADME; conditions: SIF pH 6.7 with pancreatin, 37° C., 1 μM compound
Summary of the method: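 Compounds at 1 μM in fresh simulated intestinal fluid: FaSSIF powder in pH 6.7 phosphate buffer with pancreatin. Agitated at 37 °C; aliquots taken at T0 and regular intervals, quenched with 1 volume acetonitrile. Degradation rates determined by LC/MS.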

[2] = Stability of conjugates in Simulated Gastric Fluid (SGF); assay type: in vitro ADME; conditions: SGF pH 1.6 with pepsin, 37° C., 1 μM compound
Summary of the method: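 Compound at 1 μM (from 1 mM DMSO stock) in pH 1.6 NaCl medium with FaSSIF powder and 0.1 mg/mL pepsin, mixed at 37° C. Aliquots quenched with equal volume acetonitrile at T0 and regular intervals; LC/MS gives degradation rate.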

[3] = In vitro Colonic Material Stability Assay; assay type: in vitro ADME; conditions: colonic material slurry in YCFAC media, anaerobic, 1 or 10 μM
Summary of the method: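 Anaerobically, a colonic material slurry (15% w/v) was inoculated into YCFAC or other suitable media. Compounds were added at 1 or 10 μM final. Samples taken at 0–2880 min were quenched with acetonitrile containing internal standard and analysed by LC/MS.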

[4] = In Vitro Biotransformation and Detection of Monomethyl Fumarate Assay; assay type: in vitro ADME; conditions: FaSSIF with pancreatin pH 6.5, 100 μM compound, 0 h and 2 h, UHPLC-MSMS
Protocol: Stock solution of compound 2 was prepared at 10 mM in DMSO. FaSSIF was made by mixing sodium taurocholate (3.0 mM) Lecithin (0.75 mM), and pancreatin (10 mg/mL) in prepared solution of sodium phosphate monobasic (28.4 mM), sodium hydroxide (8.7 mM), sodium chloride (105.9 mM), pH 6.5. Compound 2, was added to FaSSIF to final concentration of 100 μM. Release of monomethyl fumaric acid (MMF) was monitored via UHPLC-MSMS and comparing the retention time and corresponding fragmentation of released MMF to retention time and fragmentation of a neat solution of MMF that was analyzed separately with the same method described below. Release of MMF was measured at 0 h and 2 h time points. At both time points samples were centrifuged at 14000 rpm for 10 minutes at 4° C. Supernatants were then transferred to HPLC vials and analyzed immediately. The results of this assay are illustrated in FIG. 1.

[5] = male, Sprague Dawley, rat, in vivo, po
Protocol: The amount of compound dosed was normalized to provide approximately equimolar amounts of monomethylfumarate. Approximately 150 μL whole blood samples were collected at 15 and 30 min; and 1, 2, 4, 8, and 24 h post-dosing from the jugular or tail vein. 100 μL of samples were added to K2EDTA tubes pre-filled with 300 μL of 100 mM tiopronin in 100 mM ammonium bicarbonate (pH 9.0). Samples were vortex-mixed for approximately 5 min at ambient temperature in order to trap free fractions of monomethyl fumarate.

MIP-1α = test: Neutrophil Chemokine Production Assay: MIP-1α; assay type: cell-based; conditions: human neutrophils, 12 h
Summary of the method: (§1)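 Neutrophils were isolated from human blood by Histopaque-1077 separation and RBC lysis, then plated at 2.0×10^5 cells/well in RPMI complete. Cells were stimulated with LPS (10 μL of a 2 μg/mL solution) for 12 h at 37 °C. Supernatant chemokines were measured by Luminex multiplex, averaging three data points from two donors.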

IL-8 = test: Neutrophil Chemokine Production Assay: IL-8; assay type: cell-based; conditions: human neutrophils, 12 h
Summary of the method: as §1

Caco-2 colonocytes = test: Human Caco-2 Barrier Integrity Assay, Study 1; assay type: cell-based; conditions: Caco-2, + cytokines (TNFα, IFNγ, IL-1β), 48 hours
Protocol: Caco-2 colonocytes were maintained at 37° C. and 5% CO2 in Dulbecco's Modified Eagle Medium (DMEM) and supplemented with 10% FBS, 1% NEAA, 1% penicillin-streptomycin. At 70-80% confluency, cells were trypsinized and seeded in 0.4 cm^2 transwell collagen I coated membranes with supplemented DMEM in both apical and basolateral compartments. […] After 48 hours, TEER readings were taken again and viability was measured by CellTiter 96® AQueous One Solution Cell Proliferation Assay (Promega).

naïve CD4+ T cells = test: Human Regulatory T Cell Differentiation Assay; assay type: cell-based; conditions: 6 days; for Treg induction % DMSO: TGF-β; for Cell viability % DMSO: viability dye
Summary of the method: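 Naïve CD4+ T cells from healthy-donor PBMCs cultured 6 days in OpTmizer medium with 5 ng/ml TGF-β, 100 U/ml IL-2 and CD3/CD28/CD2 activator, with or without compound. Tregs (live CD4+CD3+CD25+FOXP3+, lineage-negative) measured by flow cytometry and expressed as % of total CD4+ T cells.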

MIP-1β = test: Neutrophil Chemokine Production Assay: MIP-1β; assay type: cell-based; conditions: human neutrophils, 12 h
Summary of the method: as §1

AhR = target: T1, AhR (Homo sapiens, UniProt P35869); test: AhR Activation in Caco-2 Cells Through CYP1A1 mRNA Expression; conditions: overnight
T1 sequence (P35869 11-848): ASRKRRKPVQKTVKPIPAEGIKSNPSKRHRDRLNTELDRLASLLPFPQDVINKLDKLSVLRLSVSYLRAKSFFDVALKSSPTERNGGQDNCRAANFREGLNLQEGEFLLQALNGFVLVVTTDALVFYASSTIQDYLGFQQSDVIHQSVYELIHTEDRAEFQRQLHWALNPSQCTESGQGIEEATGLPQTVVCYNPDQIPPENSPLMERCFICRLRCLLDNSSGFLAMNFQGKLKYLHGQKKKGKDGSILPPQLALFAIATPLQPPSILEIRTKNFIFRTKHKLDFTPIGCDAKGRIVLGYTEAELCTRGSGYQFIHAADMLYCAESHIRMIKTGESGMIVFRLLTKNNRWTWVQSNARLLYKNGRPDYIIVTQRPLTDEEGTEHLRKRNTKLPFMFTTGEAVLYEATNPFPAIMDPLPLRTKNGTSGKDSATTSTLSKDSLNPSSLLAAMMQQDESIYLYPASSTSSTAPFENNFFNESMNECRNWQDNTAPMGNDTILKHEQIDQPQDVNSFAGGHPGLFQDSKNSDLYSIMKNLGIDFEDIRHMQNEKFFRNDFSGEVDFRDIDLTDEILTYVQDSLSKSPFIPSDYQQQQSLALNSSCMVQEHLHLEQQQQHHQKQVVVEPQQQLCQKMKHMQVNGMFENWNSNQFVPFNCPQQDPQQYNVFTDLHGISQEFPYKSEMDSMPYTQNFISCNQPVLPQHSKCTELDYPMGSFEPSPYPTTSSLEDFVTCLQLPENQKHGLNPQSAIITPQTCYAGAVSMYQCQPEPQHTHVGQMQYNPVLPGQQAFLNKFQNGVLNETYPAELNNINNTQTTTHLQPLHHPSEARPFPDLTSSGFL
Protocol: Caco-2 cells from American Type Culture Collection (ATCC) were plated in a sterile tissue culture treated 96-well plate (ThermoFisher) at 8.0×10^5 cells per well, and grown overnight at 37° C., 5% CO2 in DMEM complete (Gibco) in order to achieve confluence. After the incubation medium was aspirated off of the Caco-2 monolayers, tissues were then washed with 200 μL of warmed PBS solution, and subsequently 190 μL of pre-warmed growth medium was added to each well. Compounds of interest were diluted at a 20× concentration in growth medium containing 2% DMSO, and 10 μL of compound solutions were added to respective wells in triplicate. Compounds where incubated overnight at 37° C., 5% CO2. 2-(1′H-indole-3′-carbonyl)-thiazole-4-carboxylic acid methyl ester (ITE) was used as the positive control for AhR activation at 1 and 100 μM concentrations. At the end of the incubation, medium was aspirated off of the Caco-2 cells, and washed with 100 μL of cold PBS solution. RNA was extracted via the TaqMan™ Gene Expression Cells-to-CT™ Kit (ThermoFisher) according to the manufacturer's protocol. The QuantStudio 6 Flex (Applied Biosciences) was used to analyze mRNA levels of CYP1A1 using GAPDH as the endogenous control. TaqMan™ probe sets for both genes were acquired from ThermoFisher. Samples were run in triplicate and data was analyzed using the QuantStudio software and reported as linear (Table 6) and log 2(ΔΔCT) values. Statistical analysis was performed using a two-tailed t-test comparing CYP1A1 levels in the presence of each individual compound to the vehicle negative control.

For `CCC(=O)O[C@@H]1[C@@H](OC(=O)CC)[C@H](C)O[C@@H](OC(=O)/C=C/C(=O)OC)[C@@H]1OC(=O)CC` [Compound 2, Methyl ((2S,3R,4R,5S,6S)-6-methyl-3,4,5-tris(propionyloxy)tetrahydro-2H-pyran-2-yl) fumarate], the “Assay 2 (SIF) (% @ Remaining 4 hours)” value [1] was “B (B: 25-75% of the tested compound remaining)”, the “Assay 1 (SGF) (% Remaining @ 1 hour)” value [2] was “C (C: >75% of the tested compound remaining)” and the “Assay 3 (% Remaining at 24 h)” value [3] was “C (C: >75% of the tested compound remaining)”. For the same compound, the “Release of monomethyl fumaric acid (MMF)” value [4] was “actively released”.

Work on `COC(=O)/C=C/C(=O)OCCN1C(=O)CCC1=O` [Diroximel Fumarate, diroximel fumarate] yielded an AUClast [5] of 9381 ng·h/mL, a Cmax [5] of 17251 ng/mL and a Tmax [5] of 15 min.

For `O=C(O[C@@H]1Cc2c(O)cc(O)cc2O[C@@H]1c1cc(O)c(O)c(O)c1)c1cc(O)c(O)c(O)c1` [epigallocatechin gallate], the “% MIP-1α (Vehicle + LPS = 100%)” value (MIP-1α; Conc. 0.1 μM) was “− (− = >90% Vehicle)”, the “% MIP-1α (Vehicle + LPS = 100%)” value (MIP-1α; Conc. 1.0 μM) was “− (− = >90% Vehicle)” and the “% IL-8 (Vehicle + LPS = 100%)” value (IL-8; Conc. 0.1 μM) was “− (− = >90% Vehicle)”. For the same compound, the “% IL-8 (Vehicle + LPS = 100%)” value (IL-8; Conc. 1.0 μM) was “− (− = >90% Vehicle)”, the “% Change in TEER from DMSO” value (Caco-2 colonocytes; 100 nM) was “− (<125%: −)” and the “% Change in TEER from DMSO” value (Caco-2 colonocytes; 1 μM) was “− (<125%: −)”. The “Treg induction % DMSO” value (naïve CD4+ T cells; IL-2, 100 nM) was “= (90% > <110%: =)”, the “Treg induction % DMSO” value (naïve CD4+ T cells; IL-2, 1 μM) was “= (90% > <110%: =)” and the “Cell viability % DMSO” value (naïve CD4+ T cells; 100 nM) was “= (90% > <110%: =)”. For the same compound, the “Cell viability % DMSO” value (naïve CD4+ T cells; 1 μM) was “= (90% > <110%: =)”, the “% MIP-1β (DMSO + LPS = 100%)” value (MIP-1β; Conc. 0.1 μM) was “− (− = >90% Vehicle)” and the “% MIP-1β (DMSO + LPS = 100%)” value (MIP-1β; Conc. 1.0 μM) was “− (− = >90% Vehicle)”. The “Average CYP1A1 mRNA levels” value (AhR; Conc. 0.1 μM) was “− (− = <2-fold Vehicle)” and the “Average CYP1A1 mRNA levels” value (AhR; Conc. 1.0 μM) was “− (− = <2-fold Vehicle)”.

In the case of `c1ccc2[nH]ccc2c1` [indole], the “Average CYP1A1 mRNA levels” value (AhR; Conc. 1000.0 μM) is reported as “+ (+ = >2-fold Vehicle)”.
